Experimental data from publication PMC8002351, “Triterpenes and Phenolic Compounds from the Fungus Fuscoporia torulosa: Isolation, Structure Determination and Biological Activity” (Molecules, 2021).

Experiments:
DPPH assay = details: 30 min; 550 nm
Description: A method based on the description of Miser-Salihoglu E. et al. was applied. The examination was performed on a FLUOstar Optima BMG Labtech plate-reader with 96-well microplates. The samples were measured in a DMSO environment with the volume of 150 µL per sample resulting 1 mg/mL concentration. Every well contained 50 µL (100 µM) of this base solution for the absorbance measurement (30 min; 550 nm). […] For data evaluation GraphPad Prism 6.0 software was utilized. The DPPH (2,2′-diphenyl-1-picrylhydrazyl) reagent necessary for the process was supplied by from Sigma-Aldrich Hungary.

ORAC assay = details: Trolox equivalent
Description: A method based on the description of Mielnik et al. was applied. In summary, 20 µL of the samples were used in 0.01 mg/mL concentration with a 96-well black microplate. In each well, 60 µL of AAPH (12 mM final concentration) and 120 µL of fluorescein solution (70 nM final concentration) were added. The fluorescence alteration of each sample was measured for 3 h with 1.5 min cycle intervals by a FLUOstar Optima BMG Labtech plate-reader. Trolox ((±)-6-hydroxy-2,5,7,8-tetramethyl-chromane-2-carboxylic acid) was used as a standard. Both Trolox and AAPH was supplied by Sigma-Aldrich, Hungary, while Fluorescein was provided by Fluka analytical, Japan. For data analysis, the GraphPad Prism 6.0 software was used. The results were expressed as mmol Trolox equivalent per g of dry material (mmloTE/g).

## O=C1O[C@H]([C@@H](O)CO)C(O)=C1O [Ascorbic acid, ascorbic acid]
DPPH assay
  DPPH EC50: 0.89 ± 0.02 µg/mL
ORAC assay
  ORAC Activity: 6.94 ± 0.58 mmol TE/g
